Structures can show the parent of a compound that is named as a salt. Where two headings read alike, the source gives them in different places. Where a SMILES comes first, the peptide text is derived from it.
Experiments:
[1] = target: T1, SARS-CoV-2 PLpro (nsp3 1564–1878) (Severe acute respiratory syndrome coronavirus 2, UniProt P0DTD1); experiment: biochemical; design: FRET-quenched peptide (Pro3) cleavage by PLpro, 10 min pre-incubation, slope over 20 min, normalised to no-compound control; details: high concentration screen, read-out: % of control remaining
[2] = target: T1, SARS-CoV-2 PLpro (nsp3 1564–1878); experiment: biochemical; design: FRET-quenched peptide (Pro3) cleavage by PLpro, 10 min pre-incubation, slope over 20 min, normalised to no-compound control; details: low concentration screen, read-out: % of control remaining

SMILES: CN(C)c1ccc(-c2nc3ncc(Cl)c(N4CCN(CC(=O)Nc5nccs5)CC4)c3[nH]2)cc1 [CCT129202]
- remaining activity at 3.75 µM ([1]; Well no.=5253): 93.9%
- remaining activity at 1.25 µM ([2]; Well no.=5253): 88.1%

SMILES: NNC(N)=O [Semicarbazide hydrochloride]
- remaining activity at 3.75 µM ([1]; Well no.=1406): 99.4%
- remaining activity at 1.25 µM ([2]; Well no.=1406): 99.7%

SMILES: Nc1ccn([C@H]2C[C@H](O)[C@@H](CO)O2)c(=O)n1 [2'-Deoxycytidine]
- remaining activity at 3.75 µM ([1]; Well no.=7451): 93.7%
- remaining activity at 3.75 µM ([1]; Well no.=7760): 98.4%
- remaining activity at 1.25 µM ([2]; Well no.=7451): 93.9%
- remaining activity at 1.25 µM ([2]; Well no.=7760): 96.4%

SMILES: CN1[C@@H]2CC[C@H]1C[C@@H](OC(=O)c1c[nH]c3ccccc13)C2 [Tropisetron (Hydrochloride)]
- remaining activity at 3.75 µM ([1]; Well no.=7467): 102%
- remaining activity at 1.25 µM ([2]; Well no.=7467): 100%

SMILES: O=C1CCc2ccc(OCCCCN3CCN(c4cccc(Cl)c4Cl)CC3)cc2N1 [Aripiprazole]
- remaining activity at 3.75 µM ([1]; Well no.=1844): 95.9%
- remaining activity at 3.75 µM ([1]; Well no.=8237): 95.5%
- remaining activity at 1.25 µM ([2]; Well no.=1844): 93.9%
- remaining activity at 1.25 µM ([2]; Well no.=8237): 102%

SMILES: N=c1c[n+](N2CCOCC2)[n-]o1 [3-Morpholinosydnonimine hydrochloride]
- remaining activity at 3.75 µM ([1]; Well no.=1041): 103%
- remaining activity at 1.25 µM ([2]; Well no.=1041): 102%

SMILES: C[C@H]1COc2c(N3CCN(C)CC3)c(F)cc3c(=O)c(C(=O)O)cn1c23 [Levofloxacin]
- remaining activity at 3.75 µM ([1]; Well no.=2266): 98.5%
- remaining activity at 1.25 µM ([2]; Well no.=2266): 97.9%

SMILES: CCN1CCN(C(=O)N[C@@H](C(=O)N[C@@H]2C(=O)N3[C@@H]2SC(C)(C)[C@@H]3C(=O)O)c2ccccc2)C(=O)C1=O [Piperacillin]
- remaining activity at 3.75 µM ([1]; Well no.=2107): 104%
- remaining activity at 1.25 µM ([2]; Well no.=2107): 104%

SMILES: CCNC(=O)N1CCN(CCCC(c2ccc(F)cc2)c2ccc(F)cc2)CC1 [Amperozide hydrochloride]
- remaining activity at 3.75 µM ([1]; Well no.=165): 96.4%
- remaining activity at 1.25 µM ([2]; Well no.=165): 92.6%

SMILES: CN1[C@@H]2CC(O)C[C@H]1[C@@H]1O[C@@H]12 (stereo partly drawn) [Scopine]
- remaining activity at 3.75 µM ([1]; Well no.=4910): 92.3%
- remaining activity at 1.25 µM ([2]; Well no.=4910): 95.8%

SMILES: CCS(=O)(=O)c1ccc(CC(=O)Nc2cc(Cl)c(-c3ccccc3OC(F)(F)F)c(Cl)c2)cc1 [GSK805]
- remaining activity at 3.75 µM ([1]; Well no.=8657): 94.7%
- remaining activity at 1.25 µM ([2]; Well no.=8657): 103%

SMILES: Clc1ccc(CCCOCCCN2CCCCC2)cc1 [Pitolisant (hydrochloride)]
- remaining activity at 3.75 µM ([1]; Well no.=6225): 101%
- remaining activity at 1.25 µM ([2]; Well no.=6225): 100%

SMILES: c1ccc2c(c1)N=C(N1CCNCC1)c1ccccc1N2 [DREADD agonist 21]
- remaining activity at 3.75 µM ([1]; Well no.=6943): 100%
- remaining activity at 1.25 µM ([2]; Well no.=6943): 96.4%

SMILES: CNS(=O)(=O)Cc1ccc2[nH]cc(CCN(C)C)c2c1 [Sumatriptan Succinate]
- remaining activity at 3.75 µM ([1]; Well no.=2085): 97.6%
- remaining activity at 1.25 µM ([2]; Well no.=2085): 96.9%

SMILES: CCCCS(=N)(=O)CCC(N)C(=O)O (stereo not drawn) [Buthionine sulfoximine]
- remaining activity at 3.75 µM ([1]; Well no.=4086): 100%
- remaining activity at 1.25 µM ([2]; Well no.=4086): 101%

SMILES: NC(N)=NCc1cccc(I)c1 [m -Iodobenzylguanidine hemisulfate salt]
- remaining activity at 3.75 µM ([1]; Well no.=6075): 97.8%
- remaining activity at 1.25 µM ([2]; Well no.=6075): 99.1%

SMILES: CCCCC/C=C\C[C@@H](/C=C/C=C\C/C=C\CCCC(=O)O)OO [12(S)-HPETE]
- remaining activity at 3.75 µM ([1]; Well no.=4329): 103%
- remaining activity at 1.25 µM ([2]; Well no.=4329): 110%

SMILES: CC(=O)OCC(=O)[C@@]1(O)CC[C@H]2[C@@H]3CCC4=CC(=O)CC[C@]4(C)[C@H]3[C@@H](O)C[C@@]21C [Hydrocortisone 21-acetate]
- remaining activity at 3.75 µM ([1]; Well no.=2214): 101%
- remaining activity at 1.25 µM ([2]; Well no.=2214): 100%

SMILES: COC(=O)CC[C@H](NC(=O)[C@H](CC(=O)OC)NC(=O)OCc1ccccc1)C(=O)N[C@H](C(=O)N[C@@H](CC(=O)OC)C(=O)CF)C(C)C [Z-DEVD-FMK]
- remaining activity at 3.75 µM ([1]; Well no.=7172): 99.7%
- remaining activity at 3.75 µM ([1]; Well no.=7636): 91.3%
- remaining activity at 1.25 µM ([2]; Well no.=7172): 102%
- remaining activity at 1.25 µM ([2]; Well no.=7636): 95.2%

SMILES: CCOc1ccc2ccccc2c1C(=O)N[C@@H]1C(=O)N2[C@@H]1SC(C)(C)[C@@H]2C(=O)O [Nafcillin (sodium monohydrate)]
- remaining activity at 3.75 µM ([1]; Well no.=8660): 98.1%
- remaining activity at 1.25 µM ([2]; Well no.=8660): 99%

SMILES: N[C@@H](Cc1ccccc1)C(=O)N[C@@H](Cc1ccccc1)C(=O)O [H-Phe-Phe-OH] (H-Phe-Phe-OH)
- remaining activity at 3.75 µM ([1]; Well no.=8742): 104%
- remaining activity at 1.25 µM ([2]; Well no.=8742): 96.6%

SMILES: CCCCC/C=C\C/C=C\C/C=C\C/C=C\CCCC(=O)NCCO [Anandamide (20:4, n-6)]
- remaining activity at 3.75 µM ([1]; Well no.=4290): 93%
- remaining activity at 1.25 µM ([2]; Well no.=4290): 99.3%

SMILES: O=C(Nc1cccc(Cl)c1)Nc1ncc(CCNc2ncnc3ccsc23)s1 [SNS-314]
- remaining activity at 3.75 µM ([1]; Well no.=2893): 101%
- remaining activity at 1.25 µM ([2]; Well no.=2893): 101%

SMILES: Nc1ccn([C@@H]2O[C@H](CO)[C@@H](O)C2(F)F)c(=O)n1 [Gemcitabine (hydrochloride)]
- remaining activity at 3.75 µM ([1]; Well no.=8056): 100%
- remaining activity at 1.25 µM ([2]; Well no.=8056): 96.9%

SMILES: C#C[C@]1(O)CC[C@H]2[C@@H]3CCc4cc(O)ccc4[C@H]3CC[C@@]21C [Ethynyl Estradiol]
- remaining activity at 3.75 µM ([1]; Well no.=6487): 102%
- remaining activity at 1.25 µM ([2]; Well no.=6487): 103%

SMILES: O=c1[nH]c2ccccc2n1CCN1CCN(c2cccc(C(F)(F)F)c2)CC1 [1-(2-{4-[3-(trifluoromethyl)phenyl]-1-piperazinyl}ethyl)-1,3-dihydro-2H-benzimidazol-2-one]
- remaining activity at 3.75 µM ([1]; Well no.=5866): 97.9%
- remaining activity at 1.25 µM ([2]; Well no.=5866): 103%

SMILES: Brc1c(Br)c(Br)c2n[nH]nc2c1Br [TBB - 4,5,6,7-Tetrabromobenzotriazole]
- remaining activity at 3.75 µM ([1]; Well no.=2494): 103%
- remaining activity at 1.25 µM ([2]; Well no.=2494): 100%

SMILES: N=C(N)c1ccc(OCCCCCOc2ccc(C(=N)N)cc2)cc1 [Pentamidine isethionate]
- remaining activity at 3.75 µM ([1]; Well no.=996): 101%
- remaining activity at 1.25 µM ([2]; Well no.=996): 101%

SMILES: COc1ccc2cc(OCC3(C(=O)O)CN(C(=O)c4ccc(F)cc4)C3)ccc2c1 [1-(4-fluorobenzoyl)-3-(((6-methoxynaphthalen-2-yl)oxy)methyl)azetidine-3-carboxylic acid]
- remaining activity at 3.75 µM ([1]; Well no.=5909): 102%
- remaining activity at 1.25 µM ([2]; Well no.=5909): 103%

SMILES: CC(C)c1c(C(=O)Nc2ccccc2)c(-c2ccccc2)c(-c2ccc(F)cc2)n1CC[C@@H](O)C[C@@H](O)CC(=O)O [Atorvastatin Calcium]
- remaining activity at 3.75 µM ([1]; Well no.=8096): 98.2%
- remaining activity at 1.25 µM ([2]; Well no.=8096): 95.7%

SMILES: C/C=C/c1ccc(OC)cc1 [Anethole, trans-]
- remaining activity at 3.75 µM ([1]; Well no.=1916): 95.1%
- remaining activity at 1.25 µM ([2]; Well no.=1916): 97.9%

SMILES: COc1cc(O)c(C(=O)/C=C/c2ccccc2)c(OC)c1 [Flavokawain B]
- remaining activity at 3.75 µM ([1]; Well no.=3685): 100%
- remaining activity at 1.25 µM ([2]; Well no.=3685): 98.5%

SMILES: COc1cc(/C=C/C(=O)O)ccc1O [Ferulic acid (sodium)]
- remaining activity at 3.75 µM ([1]; Well no.=8535): 106%
- remaining activity at 1.25 µM ([2]; Well no.=8535): 107%
